pEC50: −log10 of the molar value.
Experiments:
[1] = target: T1, Glucose-dependent insulinotropic receptor (Homo sapiens) (UniProt Q8TDV5); assay: Intrinsic activity at human recombinant GPR119 expressed in HEK293 cells co-expressing CRE beta-lactamase assessed as cAMP accumulation at 10 uM by HTRF assay relative to control; type: functional, cell-based
T1 sequence (whole entry): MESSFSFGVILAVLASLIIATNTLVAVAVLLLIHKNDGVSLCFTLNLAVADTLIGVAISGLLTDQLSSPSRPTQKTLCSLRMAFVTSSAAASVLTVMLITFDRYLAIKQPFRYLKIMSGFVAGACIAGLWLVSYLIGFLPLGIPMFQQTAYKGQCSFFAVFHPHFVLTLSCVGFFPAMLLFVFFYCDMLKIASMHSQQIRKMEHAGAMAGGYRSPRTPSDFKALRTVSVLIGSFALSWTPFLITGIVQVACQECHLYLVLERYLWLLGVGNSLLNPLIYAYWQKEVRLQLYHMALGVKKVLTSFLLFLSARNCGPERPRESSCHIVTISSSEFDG

[2] = target: T2, Glucose-dependent insulinotropic receptor (Homo sapiens, UniProt Q8TDV5); assay: Agonist activity at human GPR119 expressed in HEK293 cells co-expressing CRE beta-lactamase assessed as cAMP accumulation by HTRF assay; type: functional, cell-based
T2 sequence (Q8TDV5 whole entry): T1 sequence (whole entry)

physchem = details: buffer, pH 7.4
[3] = Intrinsic clearance in human liver microsomes; type: ADME, Microsome; details: read-out: CLH

| Compound | Intrinsic activity [1] [%] | pEC50 [2] | logD (physchem) | microsomal CLint [3] [µL/min/mg] |
| --- | --- | --- | --- | --- |
| CC(C)OC(=O)N1CCC(N2Cc3cn(-c4ccc(S(C)(=O)=O)cc4F)nc3C2)CC1 | 105 | 6.06 | – | 10.5 |
| Cc1nc(S(C)(=O)=O)ccc1NCc1cnn(C2CCN(C(=O)OC(C)C)CC2)c1 | – | < 5.00 | 1.6 | – |
| CC(C)OC(=O)N1CCC(n2cc3c(n2)CN(c2ccc(S(C)(=O)=O)cc2F)C3)CC1 | 48 | 6.59 | 3.2 | 36.1 |
| CCc1cnc(OC(=O)N2CCC(n3cc(CNc4ccc(S(C)(=O)=O)cc4F)cn3)CC2)nc1 | 43 | 7.33 | 3 | 148 |
| CCc1cnc(N2CCC([N+]3([O-])Cc4cn(-c5ccc(S(C)(=O)=O)cc5F)nc4C3)CC2)nc1 (stereo unspecified) | 107 | 6.30 | 1.1 | 9.8 |
| CCc1cnc(N2CCC(N3Cc4cn(-c5ccc(S(C)(=O)=O)cc5F)nc4C3)CC2)nc1 | 118 | 7.08 | 2.9 | 23 |

Next, values leading:

| Intrinsic activity [1] [%] | pEC50 [2] | logD (physchem) | microsomal CLint [3] [µL/min/mg] | Compound |
| --- | --- | --- | --- | --- |
| 24 | 6.62 | 2.8 | – | CC(C)COC(=O)N1CCC(n2cc(CNc3ccc(S(C)(=O)=O)cc3F)cn2)CC1 |
| 42 | 6.34 | 2.5 | – | CS(=O)(=O)c1ccc(NCc2cnn(C3CCN(C(=O)OC4CCC4)CC3)c2)c(F)c1 |
| 41 | 6.74 | 2.3 | 9.7 | CC(C)OC(=O)N1CCC(n2cc(CNc3ccc(S(C)(=O)=O)cc3F)cn2)CC1 |

— ChEMBL document CHEMBL2311308, “From partial to full agonism: identification of a novel 2,4,5,6-tetrahydropyrrolo[3,4-c]pyrazole as a full agonist of the human GPR119 receptor” (Bioorg Med Chem Lett, 2013)
